target: T1, TLR7 (Homo sapiens, UniProt Q9NYK1); test: Human PBMC, IFN-α readout using ORN R-1362+DOTAP (TLR7 antagonism); format: cell-based; details: human PBMC, 0.5 μM ORN R-1362 + 5 μg/ml DOTAP, 16 h, IFN-α ELISA; read-out: IC50 TLR7, Experimental
T1 construct: endogenous in cells; host or cells: freshly isolated human PBMC from donor buffy coats
T1 sequence (Q9NYK1 27-1049): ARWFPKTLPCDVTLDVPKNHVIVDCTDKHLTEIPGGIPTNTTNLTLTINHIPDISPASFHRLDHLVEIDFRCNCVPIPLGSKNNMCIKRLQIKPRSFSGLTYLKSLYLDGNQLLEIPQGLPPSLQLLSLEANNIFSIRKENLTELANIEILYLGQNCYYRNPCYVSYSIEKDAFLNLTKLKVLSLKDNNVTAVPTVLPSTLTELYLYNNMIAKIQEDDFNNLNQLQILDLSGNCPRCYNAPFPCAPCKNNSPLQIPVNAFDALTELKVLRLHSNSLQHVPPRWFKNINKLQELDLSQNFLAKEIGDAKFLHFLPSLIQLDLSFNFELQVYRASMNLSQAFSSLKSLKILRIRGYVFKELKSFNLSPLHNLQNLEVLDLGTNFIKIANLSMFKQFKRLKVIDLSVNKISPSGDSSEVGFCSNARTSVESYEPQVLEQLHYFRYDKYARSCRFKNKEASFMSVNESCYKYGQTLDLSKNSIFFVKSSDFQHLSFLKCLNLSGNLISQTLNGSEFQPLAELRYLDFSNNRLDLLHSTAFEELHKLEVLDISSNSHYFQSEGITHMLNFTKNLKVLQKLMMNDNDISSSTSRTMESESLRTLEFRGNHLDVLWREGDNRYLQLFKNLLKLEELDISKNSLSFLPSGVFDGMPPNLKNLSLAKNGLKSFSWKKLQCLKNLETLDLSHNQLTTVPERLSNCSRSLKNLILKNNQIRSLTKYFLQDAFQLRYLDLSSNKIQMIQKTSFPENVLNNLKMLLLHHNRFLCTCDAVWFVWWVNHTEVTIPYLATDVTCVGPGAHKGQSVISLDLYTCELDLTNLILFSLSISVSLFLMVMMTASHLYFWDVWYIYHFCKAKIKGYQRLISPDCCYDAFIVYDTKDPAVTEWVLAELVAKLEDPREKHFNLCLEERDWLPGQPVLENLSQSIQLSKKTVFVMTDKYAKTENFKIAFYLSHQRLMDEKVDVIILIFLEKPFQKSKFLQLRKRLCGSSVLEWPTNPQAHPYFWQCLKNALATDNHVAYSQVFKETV
Excerpt: (§1) Peripheral blood mononuclear cell (PBMC) buffy coat preparations from healthy male and female human donors were obtained from the Institute for Hemostaseology and Transfusion Medicine of the University of Düsseldorf (Germany).
(§2) PBMC were purified by centrifugation over Ficoll-Hypaque (Sigma). Purified PBMC were washed twice with 1×PBS and resuspended in RPMI 1640 culture medium supplemented with 5% (v/v) heat-inactivated human AB serum (BioWhittaker, Belgium) or 10% (v/v) heat-inactivated fetal calf serum (FCS), 1.5 mM L-glutamine, 100 U/ml penicillin and […] streptomycin (all from Sigma, Deisenhofen, Germany).
(§3) Freshly isolated PBMC were resuspended at a concentration of 3×10^6/ml to 5×10^6/ml with RPMI 1640 culture medium and added to 96-well round-bottomed plates (150 μl/well) which had previously received nothing or selected concentrations (typically 10 μM-0.085 nM as 7-fold serial dilutions) of small molecule. To assay antagonist reaction for TLR9, 1 μM CpG oligodeoxynucleotide (ODN) 2395 ([…]; SEQ ID NO:3) was added to wells containing small molecules. To assay antagonist reaction for TLR7 and TLR8, 0.5 μM oligoribonucleotide (ORN) R-1362 ([…]; SEQ ID NO:4) complexed to 5 μg/ml DOTAP was added to wells containing small molecules. To calculate response to CpG ODN 2395 alone or ORN R-1362+DOTAP alone, wells without small molecules were stimulated with CpG ODN 2395 or ORN R-1362+DOTAP.
(§4) Cells were cultured in a humidified incubator at 37° C. for 16 h. Culture supernatants were then collected and, if not used immediately, frozen at −20° C. until required.
(§5) Amounts of cytokines in the supernatants were assessed using enzyme-linked immunosorbent assays (ELISA) specific for IFN-α or TNF-α using commercially available antibodies or kits from BD Pharmingen or Diaclone, respectively. IFN-α readout using CpG 2395 was used to measure TLR9 response. IFN-α readout using ORN R-1362+DOTAP was used to measure TLR7 response. TNF-α release using R-1362 complexed to DOTAP was used to measure TLR8-mediated immune response.

Row | Structure (SMILES) | IC50 [nM]
1 | CN1CCN(c2ccc(-c3cc(NCCN4CCOCC4)c4ncccc4n3)cc2)CC1 [6 (A3I)] | 720

same assay, conditions: in vitro testing as described in Example 63; read-out: TLR7 IC50, Experimental

Row | Structure (SMILES) | IC50 [nM]
2 | CN1CCN(c2ccc(-c3cc(NCCN4CCOCC4)c4ncccc4n3)cc2)CC1 [6 (BIV)] | 70
3 | CN1CCN(c2ccc3nc(-c4ccccc4)nc(NCCN4CCOCC4)c3c2)CC1 [Compound 8 (Example 72)] | 76
4 | CN1CCN(c2ccc(-c3cc(NCCN4CCOCC4)c4ncccc4n3)cc2)CC1 [6 (CaI)] | 790

Results, then the compound that gave them:

Row | IC50 [nM] | Structure (SMILES)
5 | 75 | CN1CCN(c2ccc3nc(-c4ccccc4)cc(NCCN4CCOCC4)c3c2)CC1 [5 (DI)]
6 | 200 | CN1CCN(c2cc(NCCN3CCOCC3)c3cc(-c4ccccc4)ccc3n2)CC1 [6 (CI)]

target: T2, TLR9 (Homo sapiens, UniProt Q9NR96); test: Human PBMC, IFN-α readout using CpG ODN 2395 (TLR9 antagonism); format: cell-based; details: human PBMC, 1 μM CpG ODN 2395, 16 h, IFN-α ELISA; read-out: IC50 TLR9, Experimental
T2 construct: endogenous in cells; host or cells: freshly isolated human PBMC from donor buffy coats
T2 sequence (Q9NR96 26-1032): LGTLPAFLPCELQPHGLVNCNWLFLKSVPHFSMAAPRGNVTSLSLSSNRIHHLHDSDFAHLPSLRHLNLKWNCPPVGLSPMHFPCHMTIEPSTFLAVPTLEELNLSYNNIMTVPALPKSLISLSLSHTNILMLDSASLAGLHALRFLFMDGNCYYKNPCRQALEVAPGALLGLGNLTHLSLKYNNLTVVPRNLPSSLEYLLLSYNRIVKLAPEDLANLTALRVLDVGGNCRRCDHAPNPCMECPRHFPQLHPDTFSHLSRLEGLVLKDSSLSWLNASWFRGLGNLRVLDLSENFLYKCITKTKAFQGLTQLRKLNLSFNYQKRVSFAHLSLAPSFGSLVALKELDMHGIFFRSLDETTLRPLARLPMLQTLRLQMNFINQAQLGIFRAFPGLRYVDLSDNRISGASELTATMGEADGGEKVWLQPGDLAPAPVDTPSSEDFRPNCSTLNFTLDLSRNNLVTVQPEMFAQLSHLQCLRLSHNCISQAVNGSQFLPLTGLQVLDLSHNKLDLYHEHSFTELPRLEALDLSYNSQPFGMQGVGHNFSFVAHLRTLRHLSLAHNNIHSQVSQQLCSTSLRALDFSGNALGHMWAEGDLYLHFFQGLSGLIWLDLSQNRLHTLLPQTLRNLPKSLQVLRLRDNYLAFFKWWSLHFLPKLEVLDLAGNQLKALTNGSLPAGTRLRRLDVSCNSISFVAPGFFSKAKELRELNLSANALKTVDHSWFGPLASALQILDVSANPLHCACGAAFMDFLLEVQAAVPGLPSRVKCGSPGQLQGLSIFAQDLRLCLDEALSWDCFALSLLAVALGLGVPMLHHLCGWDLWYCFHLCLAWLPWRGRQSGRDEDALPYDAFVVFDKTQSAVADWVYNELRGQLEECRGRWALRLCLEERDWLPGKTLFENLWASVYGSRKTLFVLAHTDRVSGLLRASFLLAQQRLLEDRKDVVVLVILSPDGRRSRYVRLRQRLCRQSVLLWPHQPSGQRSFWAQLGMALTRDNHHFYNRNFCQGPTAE
Excerpt: as §1, §2, §3, §4, §5

Row | Structure (SMILES) | IC50 [nM]
7 | CN1CCN(c2ccc(-c3cc(NCCN4CCOCC4)c4ncccc4n3)cc2)CC1 [6 (A3I)] | 73

same assay, conditions: in vitro testing as described in Example 63; read-out: TLR9 IC50, Experimental

Row | Structure (SMILES) | IC50 [nM]
8 | CN1CCN(c2ccc(-c3cc(NCCN4CCOCC4)c4ncccc4n3)cc2)CC1 [6 (BIV)] | 44
9 | CN1CCN(c2ccc3nc(-c4ccccc4)nc(NCCN4CCOCC4)c3c2)CC1 [Compound 8 (Example 72)] | 78
10 | CN1CCN(c2ccc(-c3cc(NCCN4CCOCC4)c4ncccc4n3)cc2)CC1 [6 (CaI)] | 250

Results, then the compound that gave them:

Row | IC50 [nM] | Structure (SMILES)
11 | 72 | CN1CCN(c2ccc3nc(-c4ccccc4)cc(NCCN4CCOCC4)c3c2)CC1 [5 (DI)]
12 | 200 | CN1CCN(c2cc(NCCN3CCOCC3)c3cc(-c4ccccc4)ccc3n2)CC1 [6 (CI)]

target: T3, TLR8 (Homo sapiens, UniProt Q9NR97); test: Human PBMC, TNF-α release using ORN R-1362+DOTAP (TLR8 antagonism); format: cell-based; details: human PBMC, 0.5 μM ORN R-1362 + 5 μg/ml DOTAP, 16 h, TNF-α ELISA; read-out: IC50 TLR8, Experimental
T3 construct: endogenous in cells; host or cells: freshly isolated human PBMC from donor buffy coats
T3 sequence (Q9NR97 27-1041): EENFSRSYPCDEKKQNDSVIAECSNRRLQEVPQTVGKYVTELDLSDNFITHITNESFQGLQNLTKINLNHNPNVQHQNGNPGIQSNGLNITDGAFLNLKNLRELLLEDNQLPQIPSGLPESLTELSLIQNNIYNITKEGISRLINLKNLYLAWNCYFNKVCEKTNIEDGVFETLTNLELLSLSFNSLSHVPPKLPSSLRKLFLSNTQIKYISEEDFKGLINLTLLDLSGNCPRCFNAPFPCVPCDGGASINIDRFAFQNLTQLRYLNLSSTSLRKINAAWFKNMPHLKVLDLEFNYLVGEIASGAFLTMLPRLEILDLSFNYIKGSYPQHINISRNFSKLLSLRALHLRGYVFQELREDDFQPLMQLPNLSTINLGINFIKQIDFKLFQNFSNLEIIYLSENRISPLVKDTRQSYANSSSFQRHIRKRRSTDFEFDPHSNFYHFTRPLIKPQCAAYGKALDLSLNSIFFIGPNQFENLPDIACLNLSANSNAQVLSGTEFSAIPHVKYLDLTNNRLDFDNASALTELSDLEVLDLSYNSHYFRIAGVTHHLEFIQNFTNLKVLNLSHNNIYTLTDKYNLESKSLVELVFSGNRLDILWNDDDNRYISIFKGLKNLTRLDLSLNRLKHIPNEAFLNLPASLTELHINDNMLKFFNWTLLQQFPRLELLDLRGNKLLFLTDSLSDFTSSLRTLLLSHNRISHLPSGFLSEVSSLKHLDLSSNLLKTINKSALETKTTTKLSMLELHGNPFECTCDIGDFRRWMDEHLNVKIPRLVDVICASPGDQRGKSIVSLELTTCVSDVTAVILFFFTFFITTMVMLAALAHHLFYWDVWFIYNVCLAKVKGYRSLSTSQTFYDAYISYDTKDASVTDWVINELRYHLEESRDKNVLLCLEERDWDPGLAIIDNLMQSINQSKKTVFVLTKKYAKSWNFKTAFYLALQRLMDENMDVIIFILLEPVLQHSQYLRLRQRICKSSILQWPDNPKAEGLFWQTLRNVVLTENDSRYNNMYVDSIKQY
Excerpt: as §1, §2, §3, §4, §5

Row | Structure (SMILES) | IC50 [nM]
13 | CN1CCN(c2ccc(-c3cc(NCCN4CCOCC4)c4ncccc4n3)cc2)CC1 [6 (A3I)] | 110

same assay, conditions: in vitro testing as described in Example 63; read-out: TLR8 IC50, Experimental

Row | Structure (SMILES) | IC50 [nM]
14 | CN1CCN(c2ccc(-c3cc(NCCN4CCOCC4)c4ncccc4n3)cc2)CC1 [6 (BIV)] | 100
15 | CN1CCN(c2ccc3nc(-c4ccccc4)nc(NCCN4CCOCC4)c3c2)CC1 [Compound 8 (Example 72)] | 18
16 | CN1CCN(c2ccc(-c3cc(NCCN4CCOCC4)c4ncccc4n3)cc2)CC1 [6 (CaI)] | 140

The remaining lines, values ahead:

Row | IC50 [nM] | Structure (SMILES)
17 | 28 | CN1CCN(c2ccc3nc(-c4ccccc4)cc(NCCN4CCOCC4)c3c2)CC1 [5 (DI)]
18 | 600 | CN1CCN(c2cc(NCCN3CCOCC3)c3cc(-c4ccccc4)ccc3n2)CC1 [6 (CI)]

— US20100160314A1, “Small Molecule Inhibitors of Toll-Like Receptor 9” (priority 2006, published 2010)
